This is an account of results in US20200377496A1, “INDOLE AND BENZIMIDAZOLE DERIVATIVES AS DUAL 5-HT2A and 5-HT6 RECEPTOR ANTAGONISTS” (ADAMED PHARMA, S.A., priority 2018, published 2020).

Usually Ki stands for the equilibrium dissociation constant of an inhibitor or competing ligand from its target.

The target of one assay is human 5-HT2A receptor (Homo sapiens, UniProt P28223). Kind of assay: 5-HT2A receptor binding assay ([3H]-ketanserin radioligand). How it is done: (§1) Preparation of Solutions of Test and Reference Compounds.
human 5-HT2A receptor, sequence (P28223 whole entry): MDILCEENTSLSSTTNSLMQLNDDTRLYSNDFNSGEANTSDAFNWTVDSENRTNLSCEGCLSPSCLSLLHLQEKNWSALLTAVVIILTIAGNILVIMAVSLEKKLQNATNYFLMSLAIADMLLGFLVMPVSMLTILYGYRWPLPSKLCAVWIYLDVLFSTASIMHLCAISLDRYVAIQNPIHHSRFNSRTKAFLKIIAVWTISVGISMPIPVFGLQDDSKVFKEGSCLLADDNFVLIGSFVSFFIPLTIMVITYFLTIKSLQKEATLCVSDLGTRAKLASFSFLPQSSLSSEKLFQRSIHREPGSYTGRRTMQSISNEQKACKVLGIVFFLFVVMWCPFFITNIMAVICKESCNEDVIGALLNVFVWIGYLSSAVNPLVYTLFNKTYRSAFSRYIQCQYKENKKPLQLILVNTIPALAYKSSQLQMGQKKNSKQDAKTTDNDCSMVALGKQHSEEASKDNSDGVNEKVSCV
(§2) 1 mM stock solutions of tested compounds were prepared in DMSO. Serial dilutions of compounds were prepared in 96-well microplate in assay buffers using automated pipetting system epMotion 5070 (Eppendorf). Each compound was tested in 10 concentrations from 1.0E-6 to 1.0E-11 M (final concentration).
5-HT2A Receptor Binding Assay.
Radioligand binding was performed using membranes from CHO K1 cells stably transfected with the human 5-HT2A receptor (PerkinElmer). All assays were carried out in duplicates. 50 μl working solution of the tested compounds, 50 μl [3H]-ketanserin (final concentration 1 nM) and 150 μl diluted membranes (7 μg protein per well) prepared in assay buffer (50 mM Tris, pH 7.4, 4 mM CaCl2, 0.1% ascorbic acid) were transferred to polypropylene 96-well microplate using 96-wells pipetting station Rainin Liquidator (MettlerToledo). Mianserin (10 μM) was used to define nonspecific binding. Microplate was covered with a sealing tape, mixed and incubated for 60 minutes at 27° C. The reaction was terminated by rapid filtration through GF/B filter mate presoaked with 0.5% polyethyleneimine for 30 minutes. Ten rapid washes with 200 μl 50 mM Tris buffer (4° C., pH 7.4) were performed using automated harvester system Harvester-96 MACH III FM (Tomtec). The filter mates were dried at 37° C. in forced air fan incubator and then solid scintilator MeltiLex was melted on filter mates at 90° C. for 5 minutes. Radioactivity was counted in MicroBeta2 scintillation counter (PerkinElmer). Data were fitted to a one-site curve-fitting equation with Prism 6 (GraphPad Software) and Ki values were estimated from the Cheng-Prusoff equation.

For a further assay, the target named is 5-HT6 receptors (Homo sapiens, UniProt P50406). Kind of assay: 5-HT6 receptor binding assay ([3H]-LSD radioligand). Particulars: membranes from CHO-K1 cells with human 5-HT6 receptor, [3H]-LSD 1 nM. The procedure:
as §1, §2
5-HT6 Receptor Binding Assay.
Radioligand binding was performed using membranes from CHO-K1 cells stably transfected with the human 5-HT6 receptor (PerkinElmer). All assays were carried out in duplicates. 50 μl working solution of the tested compounds, 50 μl [3H]-LSD (final concentration 1 nM) and 150 μl diluted membranes (8 μg protein per well) prepared in assay buffer (50 mM Tris, pH 7.4, 10 mM MgCl2, 0.1 mM EDTA) were transferred to polypropylene 96 well microplate using 96-wells pipetting station Rainin Liquidator (MettlerToledo). Methiothepin (10 μM) was used to define nonspecific binding. Microplate was covered with a sealing tape, mixed and incubated for 60 minutes at 37° C. The reaction was terminated by rapid filtration through GF/A filter mate presoaked with 0.5% polyethyleneimine for 30 minutes. Ten rapid washes with 200 μl 50 mM Tris buffer (4° C., pH 7.4) were performed using automated harvester system Harvester-96 MACH III FM (Tomtec). The filter mates were dried at 37° C. in forced air fan incubator and then solid scintilator MeltiLex was melted on filter mates at 90° C. for 5 minutes. Radioactivity was counted in MicroBeta2 scintillation counter (PerkinElmer). Data were fitted to a one-site curve-fitting equation with Prism 6 (GraphPad Software) and Ki values were estimated from the Cheng-Prusoff equation.

The next assay deals with human GPCR 5-HT6 (Homo sapiens, UniProt P50406). Kind of assay: Cellular aequorin-based functional assay, 5-HT6. The class given is cell-based. Particulars: for 5-HT6 AGO EC50 [nM]: agonist mode, CHO-K1 aequorin cells; for Kb: antagonist mode, reference agonist serotonin 40 nM (EC80), read-out: 5-HT6 ANT Kb. The procedure: as §1
human GPCR 5-HT6, sequence (P50406 whole entry): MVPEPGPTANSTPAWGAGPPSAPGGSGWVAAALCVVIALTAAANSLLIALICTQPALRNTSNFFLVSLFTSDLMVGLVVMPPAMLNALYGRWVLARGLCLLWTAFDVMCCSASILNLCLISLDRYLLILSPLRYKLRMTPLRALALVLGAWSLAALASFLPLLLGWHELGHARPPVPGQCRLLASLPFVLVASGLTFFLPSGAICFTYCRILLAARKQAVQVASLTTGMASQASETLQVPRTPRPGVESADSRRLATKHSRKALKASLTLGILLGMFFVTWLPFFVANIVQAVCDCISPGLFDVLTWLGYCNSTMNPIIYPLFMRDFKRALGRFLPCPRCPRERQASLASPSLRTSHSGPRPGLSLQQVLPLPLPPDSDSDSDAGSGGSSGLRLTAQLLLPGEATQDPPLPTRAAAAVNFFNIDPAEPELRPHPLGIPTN
(§3) 1 mM stock solutions of the tested compounds were prepared in DMSO. Serial dilutions were prepared in 96-well microplate in assay buffers using automated pipetting system epMotion 5070 (Eppendorf). Two independent experiments in duplicates were performed and 6 to 10 concentrations were tested.
(§4) 5-HT2A and 5-HT6 Functional Activity Assays.
(§5) Cellular aequorin-based functional assays were performed with γ-irradiated recombinant CHO-K1 cells expressing mitochondrially-targeted Aequorin, human GPCR (5-HT2A or 5-HT6) and the promiscuous G protein α16 (PerkinElemer). Assays were performed according to the standard protocol provided by the manufacturer. After thawing, cells were transferred to assay buffer (DMEM/HAM's F12 with 0.1% protease-free BSA) and centrifuged. Cell pellet was resuspended in assay buffer and coelenterazine h was added at final concentrations of 5 μM. Cell suspension was incubated at 21° C., protected from light with constant agitation, for 4 hours and then diluted with assay buffer to a concentration of 250,000 cells/ml. After 1 hour incubation 50 yl cell suspension was dispensed using automatic injectors built in radiometric and luminescence plate counter MicroBeta2 LumiJET (PerkinElmer, USA) into white opaque 96-well microplate preloaded with tested compounds. Immediate light emission generated following calcium mobilization was recorded for 30-60 seconds. In antagonist mode, after 15-30 minutes incubation reference agonist was added to the above assay mix and light emission was recorded again. Final concentration of reference agonist was equal EC80: serotonin 40 nM for 5-HT6 receptor and α-methylserotonin 30 nM for 5-HT2A receptor. The assays were performed in the agonist mode (5-HT6 AGO and 5-HT2A AGO) as well as antagonist mode (5-HT6 ANT and 5-HT2A ANT).
(§6) IC50 and EC50 were determined by non-linear regression analysis using GraphPad Prism 6.0 software. The log IC50 was used to obtain the Kb by applying the Cheng-Prusoff approximation.

The target in a further assay is human GPCR 5-HT2A (Homo sapiens, UniProt P28223). Kind of assay: Cellular aequorin-based functional assay, 5-HT2A. It counts as cell-based. Conditions: for 5-HT2A AGO EC50 [nM]: agonist mode, CHO-K1 aequorin cells. The procedure: as §1, §3, §4, §5, §6
human GPCR 5-HT2A, sequence (P28223 whole entry): as the sequence (P28223 whole entry) above
The mark [1] stands for this setting: membranes from CHO K1 cells with human 5-HT2A receptor, [3H]-ketanserin 1 nM, read-out: 5-HT2A Ki.
[2] abbreviates: antagonist mode, reference agonist α-methylserotonin 30 nM (EC80), read-out: 5-HT2A ANT Kb.

Where two headings read alike, the source gives them in different places.

5-HT6 receptors, sequence (P50406 whole entry): as the sequence (P50406 whole entry) above

As for `CN1CCN(c2cccc3c2nc(C(F)(F)F)n3Cc2ccccc2)CC1` [Compound 2, 1-benzyl-4-(4-methylpiperazin-1-yl)-2-(trifluoromethyl)-1H-benzimidazole], the Ki on human 5-HT2A receptor (setting [1]) stood at 3.1 nM; on 5-HT6 receptors it was 2.2 nM.
With `FC(F)(F)c1nc2c(N3CCNCC3)cccc2n1Cc1cccc(Cl)c1` [Compound 6, 1-(3-chlorobenzyl)-4-(piperazin-1-yl)-2-(trifluoromethyl)-1H-benzimidazole], the Ki at human 5-HT2A receptor (setting [1]) turned out to be 3.8 nM; on 5-HT6 receptors it was 1.7 nM.
Take `Fc1cccc(Cn2c(C(F)(F)F)nc3c(N4CCNCC4)cccc32)c1` [Compound 7, 1-(3-fluorobenzyl)-4-(piperazin-1-yl)-2-(trifluoromethyl)-1H-benzimidazole]: the Ki is 2.9 nM on human 5-HT2A receptor (setting [1]) and 1.6 nM on 5-HT6 receptors. Besides, the “5-HT6 AGO EC50 [nM]” value at human GPCR 5-HT6 is listed as “N.C”. Moreover, the Kb came to 1.9 nM on human GPCR 5-HT6 and 22 nM on human GPCR 5-HT2A (setting [2]). In addition, the “5-HT2A AGO EC50 [nM]” value at human GPCR 5-HT2A is given as “N.C”.
In the case of `FC(F)(F)c1nc2c(N3CCNCC3)cccc2n1Cc1ccc(Cl)c(Cl)c1` [Compound 8, 1-(3,4-dichlorobenzyl)-4-(piperazin-1-yl)-2-(trifluoromethyl)-1H-benzo[d]imidazole], the figures for the Ki at human 5-HT2A receptor (setting [1]) and at 5-HT6 receptors were 2.9 nM and 2 nM, respectively.
Turning to `COc1cccc(Cn2c(C(F)(F)F)cc3c(N4CCN(C)CC4)cccc32)c1` [Compound 18, 1-(3-methoxybenzyl)-4-(4-methylpiperazin-1-yl)-2-(trifluoromethyl)-1H-indole], the Ki at human 5-HT2A receptor (setting [1]) amounted to 4.2 nM; on 5-HT6 receptors it was 0.27 nM.
Take `FC(F)(F)c1cc2c(N3CCNCC3)cccc2n1Cc1cccc(Cl)c1` [Compound 20, 1-(3-chloroobenzyl)-4-(piperazin-1-yl)-2-(trifluoromethyl)-1H-indole]: on human 5-HT2A receptor, the inhibition constant (Ki) was 2.2 nM. Further, on human GPCR 5-HT6, the “5-HT6 AGO EC50 [nM]” value is reported as “N.C” and the Kb came to 1.2 nM. Further, on human GPCR 5-HT2A, the Kb came out at 53 nM and the “5-HT2A AGO EC50 [nM]” value was “N.C”.
Take `CN1CCN(c2cccc3c2cc(C(F)(F)F)n3Cc2ccco2)CC1` [Compound 21, 1-(furan-2-ylmethyl)-4-(4-methylpiperazin-1-yl)-2-(trifluoromethyl)-1H-indole]: the “5-HT6 AGO EC50 [nM]” value on human GPCR 5-HT6 is reported as “N.C”. Also, the values for the Kb on human GPCR 5-HT6 and on human GPCR 5-HT2A (setting [2]) were 0.27 nM and 4.3 nM, respectively. On 5-HT6 receptors, this compound had a Ki of 0.18 nM. Besides, the “5-HT2A AGO EC50 [nM]” value on human GPCR 5-HT2A was “N.C”.
Consider `CN1CCN(c2cccc3c2cc(C(F)(F)F)n3Cc2ccc(F)c(F)c2)CC1` [Compound 22, 1-(3,4-difluorobenzyl)-4-(4-methylpiperazin-1-yl)-2-(trifluoromethyl)-1H-indole], for which the Ki on human 5-HT2A receptor (setting [1]) came to 0.45 nM. Besides, the “5-HT6 AGO EC50 [nM]” value on human GPCR 5-HT6 was “N.C”. The Kb on human GPCR 5-HT6 was determined as 4.8 nM; on human GPCR 5-HT2A (setting [2]), 26 nM. Also, the “5-HT2A AGO EC50 [nM]” value at human GPCR 5-HT2A is “N.C”.
Take `COc1cccc(Cn2c(C(F)(F)F)cc3c(N4CCNCC4)cccc32)c1` [Compound 23, 1-(3-methoxybenzyl)-4-(piperazin-1-yl)-2-(trifluoromethyl)-1H-indole]: on human GPCR 5-HT6, the “5-HT6 AGO EC50 [nM]” value is on record as “N.C”. The Kb at human GPCR 5-HT6 came out at 0.26 nM; at human GPCR 5-HT2A (setting [2]), 28 nM. For the same compound, on human GPCR 5-HT2A, the “5-HT2A AGO EC50 [nM]” value was “N.C”.
As for `CN1CCN(c2cccc3c2cc(C(F)(F)F)n3Cc2ccccc2)CC1` [Compound 26, 1-benzyl-4-(4-methylpiperazin-1-yl)-2-(trifluoromethyl)-1H-indole], the values for the Ki at human 5-HT2A receptor (setting [1]) and on 5-HT6 receptors were 0.91 nM and 0.087 nM, respectively.
As to `CN1CCN(c2cccc3c2cc(C(F)(F)F)n3Cc2cccc(Cl)c2)CC1` [Compound 27, 1-(3-chlorobenzyl)-4-(4-methylpiperazin-1-yl)-2-(trifluoromethyl)-1H-indole], on human GPCR 5-HT6, the “5-HT6 AGO EC50 [nM]” value is “N.C” and the Kb worked out at 0.31 nM. The “5-HT2A AGO EC50 [nM]” value at human GPCR 5-HT2A is reported as “N.C”. In addition, the Kb on human GPCR 5-HT2A (setting [2]) was 56 nM.
